# Laboratory results from patent publication US8513260B2, “Pyrazinylpyrazoles” (Bayer CropScience AG, priority 2009, dated 2013).
# Tested on: Lucilia cuprina larvae
# Test: Lucilia cuprina test (LUCICU)
# Assay type: in vivo
# Conditions: 48 h, treated horse meat, after 2 days, read-out: efficacy (kill)
# Procedure: (§1) Lucilia cuprina Test (LUCICU) Solvent: dimethyl sulphoxide To prepare an appropriate active ingredient formulation, 10 mg of active ingredient are mixed with 0.5 ml of dimethyl sulphoxide and the concentrate is diluted with water to the desired concentration. Vessels containing horse meat treated with the active ingredient preparation of the desired concentration are populated with about 20 Lucilia cuprina larvae. After 2 days, the kill in % is determined. 100% means that all of the larvae have been killed; 0% means that none of the larvae have been killed.
row,SMILES,pest or weed control at 100 ppm [%]
1,COc1nccnc1-n1nc(C(F)(F)F)c(-c2cc(C(F)(F)F)cc(C(F)(F)F)c2)c1N [Ex. 14],100
2,COc1nccnc1-n1nc(C(F)(F)F)c(-c2cc(Cl)c3c(c2)OCO3)c1N [Ex. 48],100
3,COc1nccnc1-n1nc(C)c(-c2cc(Cl)c3c(c2)OCO3)c1N [Ex. 75],100
4,CCc1nn(-c2nccnc2OC)c(N)c1-c1cc(Cl)c2c(c1)OCO2 [Ex. 76],100

# Tested on: green peach aphid (Myzus persicae)
# Test: Myzus test (MYZUPE spray treatment)
# Assay type: in vivo
# Conditions: Myzus persicae, 144 h, Chinese cabbage discs, after 6 days, read-out: efficacy
# Procedure: Myzus Test (MYZUPE Spray Treatment) Solvent: 78 parts by weight of acetone • • 1.5 parts by weight of dimethylformamide Emulsifier: 0.5 part by weight of alkylaryl polyglycol ether To prepare an appropriate active ingredient preparation, 1 part by weight of active ingredient is mixed with the stated amounts of solvent and emulsifier, and the concentrate is diluted with emulsifier-containing water to the desired concentration. Discs of Chinese cabbage (Brassica pekinensis) infested by all stages of the green peach aphid (Myzus persicae) are sprayed with an active ingredient preparation of the desired concentration. After 6 days, the efficacy in % is determined. 100% means that all of the aphids have been destroyed; 0% means that none of the aphids have been destroyed.
row,SMILES,pest or weed control at 500 g/ha [%]
1,COc1nccnc1-n1nc(C(F)(F)F)c(-c2cc(C(F)(F)F)cc(C(F)(F)F)c2)c1N [Ex. 14],100
2,COc1nccnc1-n1nc(C(F)(F)F)c(-c2cc(Cl)c3c(c2)OCO3)c1N [Ex. 48],90
3,COc1nccnc1-n1nc(C)c(-c2cc(Cl)c3c(c2)OCO3)c1N [Ex. 75],100
4,CCc1nn(-c2nccnc2OC)c(N)c1-c1cc(Cl)c2c(c1)OCO2 [Ex. 76],80

# Tested on: not listed separately
# Test: logP by HPLC on reversed-phase columns (C 18), EEC Directive 79/831 Annex V.A8
# Assay type: physicochemical
# Conditions: reversed-phase C18 HPLC column, pH 2.7, * LC-MS, acidic range pH 2.7, 0.1% aqueous formic acid and acetonitrile; read-out: log P
# From the text: [table] The calibration is effected with unbranched alkan-2-ones (having 3 to 16 carbon atoms) with known logP values (logP values determined on the basis of the retention times by linear interpolation between two successive alkanones).
row,SMILES,chromatographic logP
1,COc1nccnc1-n1nc(C(F)(F)F)c(-c2cc(C(F)(F)F)cc(C(F)(F)F)c2)c1N [Ex. 14],4.2
2,COc1nccnc1-n1nc(C(F)(F)F)c(-c2cc(Cl)c3c(c2)OCO3)c1N [Ex. 48],3.14
3,COc1nccnc1-n1nc(C)c(-c2cc(Cl)c3c(c2)OCO3)c1N [Ex. 75],2.26
4,CCc1nn(-c2nccnc2OC)c(N)c1-c1cc(Cl)c2c(c1)OCO2 [Ex. 76],2.57

# Tested on: red spider mite (Tetranychus urticae)
# Test: Tetranychus test, OP-resistant (TETRUR spray treatment)
# Assay type: in vivo
# Conditions: Tetranychus urticae, foliar, 144 h, 500 g/ha, bean leaf discs, after 6 days, read-out: efficacy
# Procedure, shortened: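 Bean leaf discs (Phaseolus vulgaris) infested with all mite stages were sprayed with active ingredient diluted in emulsifier-containing water at the desired concentration. Mortality read after 6 days as % efficacy, where 100% = all mites killed and 0% = none killed.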
row,SMILES,pest or weed control at 500 g/ha [%]
1,COc1nccnc1-n1nc(C(F)(F)F)c(-c2cc(C(F)(F)F)cc(C(F)(F)F)c2)c1N [Ex. 14],100
2,COc1nccnc1-n1nc(C(F)(F)F)c(-c2cc(Cl)c3c(c2)OCO3)c1N [Ex. 48],100
3,COc1nccnc1-n1nc(C)c(-c2cc(Cl)c3c(c2)OCO3)c1N [Ex. 75],100

# Tested on: larvae of the mustard beetle (Phaedon cochleariae)
# Test: Phaedon test (PHAECO spray treatment)
# Assay type: in vivo
# Conditions: Phaedon cochleariae, 168 h, Chinese cabbage discs, after 7 days, read-out: efficacy
# Procedure, shortened: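 Chinese cabbage leaf discs were sprayed with compound formulated in acetone/dimethylformamide with alkylaryl polyglycol ether emulsifier and diluted in emulsifier-containing water. After drying, discs were populated with mustard beetle larvae. Efficacy (% larvae killed; 100% = all dead) was scored after 7 days.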
row,SMILES,pest or weed control at 500 g/ha [%]
1,COc1nccnc1-n1nc(C(F)(F)F)c(-c2cc(C(F)(F)F)cc(C(F)(F)F)c2)c1N [Ex. 14],100
2,COc1nccnc1-n1nc(C(F)(F)F)c(-c2cc(Cl)c3c(c2)OCO3)c1N [Ex. 48],100
3,COc1nccnc1-n1nc(C)c(-c2cc(Cl)c3c(c2)OCO3)c1N [Ex. 75],100
4,CCc1nn(-c2nccnc2OC)c(N)c1-c1cc(Cl)c2c(c1)OCO2 [Ex. 76],100

# Tested on: Boophilus microplus
# Test: Boophilus microplus test (BOOPMI injection)
# Assay type: in vivo
# Conditions: Rhipicephalus microplus, 168 h; 20 μg animal; injection into the abdomen; after 7 days, laying of fertile eggs; read-out: efficacy
# Procedure, shortened: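 Adult female ticks injected in the abdomen with active ingredient in DMSO, then held in a climate-controlled room. Efficacy (%) scored after 7 days from laying of fertile eggs, 100% meaning no tick laid fertile eggs.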
row,SMILES,pest or weed control at 0.02 mg [%]
1,COc1nccnc1-n1nc(C(F)(F)F)c(-c2cc(C(F)(F)F)cc(C(F)(F)F)c2)c1N [Ex. 14],100
2,COc1nccnc1-n1nc(C(F)(F)F)c(-c2cc(Cl)c3c(c2)OCO3)c1N [Ex. 48],100
3,COc1nccnc1-n1nc(C)c(-c2cc(Cl)c3c(c2)OCO3)c1N [Ex. 75],100
4,CCc1nn(-c2nccnc2OC)c(N)c1-c1cc(Cl)c2c(c1)OCO2 [Ex. 76],100

# Tested on: adult Musca domestica
# Test: Musca domestica test
# Assay type: in vivo
# Conditions: 20 ppm; after 2 days
# Procedure: as §1, with “Musca domestica” for “Lucilia cuprina”, “Test” for “Test (LUCICU)”, “a sponge” for “horse meat”, “adult Musca domestica.” for “about 20 Lucilia cuprina larvae.”, “flies” for “larvae”
row,SMILES,efficacy (kill) [%]
1,COc1nccnc1-n1nc(C(F)(F)F)c(-c2cc(C(F)(F)F)cc(C(F)(F)F)c2)c1N [Ex. 14],90
2,COc1nccnc1-n1nc(C(F)(F)F)c(-c2cc(Cl)c3c(c2)OCO3)c1N [Ex. 48],90

# Same assay, conditions: 100 ppm; after 2 days
row,SMILES,efficacy (kill) [%]
1,COc1nccnc1-n1nc(C)c(-c2cc(Cl)c3c(c2)OCO3)c1N [Ex. 75],100
2,CCc1nn(-c2nccnc2OC)c(N)c1-c1cc(Cl)c2c(c1)OCO2 [Ex. 76],80

# Tested on: Tick nymphs (Amblyomma hebraeum)
# Test: Amblyomma hebraeum test (AMBYHE)
# Assay type: in vivo
# Conditions: 100 ppm; immersed one minute; after 42 days
# Procedure: Amblyomma hebraeum Test (AMBYHE) Solvent: dimethyl sulphoxide To prepare an appropriate active ingredient formulation, 10 mg of active ingredient are mixed with 0.5 ml of dimethyl sulphoxide and the concentrate is diluted with water to the desired concentration. Tick nymphs (Amblyomma hebraeum) are placed into perforated plastic beakers and immersed in the desired concentration for one minute. The ticks are transferred on filter paper into a Petri dish and stored in a climate-controlled cabinet. After 42 days, the kill in % is determined. 100% means that all of the ticks have been killed; 0% means that none of the ticks have been killed.
row,SMILES,efficacy (kill) [%]
1,COc1nccnc1-n1nc(C(F)(F)F)c(-c2cc(Cl)c3c(c2)OCO3)c1N [Ex. 48],100
2,CCc1nn(-c2nccnc2OC)c(N)c1-c1cc(Cl)c2c(c1)OCO2 [Ex. 76],100

# Tested on: caterpillars of the armyworm (Spodoptera frugiperda)
# Test: Spodoptera frugiperda test (SPODFR spray treatment)
# Assay type: in vivo
# Conditions: Spodoptera frugiperda, foliar, 168 h, maize leaf discs, after 7 days, read-out: efficacy
# Procedure, shortened: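 Maize leaf discs sprayed with the compound at the desired concentration, formulated in acetone/dimethylformamide with alkylaryl polyglycol ether emulsifier and diluted in water, then infested with armyworm caterpillars after drying. Efficacy read after 7 days as % caterpillars killed (100% = all dead, 0% = none).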
row,SMILES,pest or weed control at 500 g/ha [%]
1,COc1nccnc1-n1nc(C(F)(F)F)c(-c2cc(C(F)(F)F)cc(C(F)(F)F)c2)c1N [Ex. 14],100
2,COc1nccnc1-n1nc(C(F)(F)F)c(-c2cc(Cl)c3c(c2)OCO3)c1N [Ex. 48],100
3,COc1nccnc1-n1nc(C)c(-c2cc(Cl)c3c(c2)OCO3)c1N [Ex. 75],100
4,CCc1nn(-c2nccnc2OC)c(N)c1-c1cc(Cl)c2c(c1)OCO2 [Ex. 76],83

# Tested on: unfed adult fleas (Ctenocephalides felis)
# Test: Ctenocephalides felis test (CTECFE)
# Assay type: in vivo
# Conditions: Ctenocephalides felis, 48 h; 100 ppm in citrated cow's blood; after 2 days; read-out: efficacy (kill)
# Procedure: Ctenocephalides felis Test ([…]) Solvent: 1 part by weight of dimethyl sulphoxide For the purpose of preparing an appropriate active ingredient formulation, 10 mg of active ingredient are mixed with 0.5 ml of dimethyl sulphoxide. A portion of the concentrate is diluted with citrated cow's blood and the desired concentration is established. About 20 unfed adult fleas (Ctenocephalides felis) are introduced into a chamber closed at the top and bottom with gauze. A metal cylinder, the bottom of which is closed with Parafilm, is placed onto the chamber. The cylinder contains the blood/active ingredient preparation, which can be imbibed by the fleas through the Parafilm membrane. After 2 days, the kill in % is determined. 100% means that all fleas have been killed; 0% means that none of the fleas have been killed.
row,SMILES,pest or weed control at 100 ppm [%]
1,COc1nccnc1-n1nc(C(F)(F)F)c(-c2cc(C(F)(F)F)cc(C(F)(F)F)c2)c1N [Ex. 14],100
2,COc1nccnc1-n1nc(C(F)(F)F)c(-c2cc(Cl)c3c(c2)OCO3)c1N [Ex. 48],100
3,COc1nccnc1-n1nc(C)c(-c2cc(Cl)c3c(c2)OCO3)c1N [Ex. 75],100
4,CCc1nn(-c2nccnc2OC)c(N)c1-c1cc(Cl)c2c(c1)OCO2 [Ex. 76],90

# Tested on: adult engorged Boophilus microplus females of the SP-resistant Parkhurst strain
# Test: Boophilus microplus (dip)
# Assay type: in vivo
# Conditions: Rhipicephalus microplus, 168 h, after 7 days, laying of fertile eggs, read-out: efficacy
# Procedure: Boophilus microplus (dip)
# Test animals: adult engorged Boophilus microplus females of the SP-resistant Parkhurst strain
# Solvent: dimethyl sulphoxide
# 10 mg of active ingredient are dissolved in 0.5 ml of dimethyl sulphoxide. For the purpose of preparing a suitable formulation, the active ingredient solution is diluted with water to the concentration desired in each case. This active ingredient preparation is pipetted into tubes. 8-10 ticks are transferred into a further tube with holes. The tube is immersed into the active ingredient formulation, and all ticks are completely wetted. After the liquid has run out, the ticks are transferred onto filter discs in plastic dishes and stored in a climate-controlled room. The activity is assessed after 7 days by laying of fertile eggs. Eggs whose fertility is not outwardly visible are stored in glass tubes in a climate-controlled cabinet until the larvae hatch. Efficacy of 100% means that none of the ticks has laid any fertile eggs.
row,SMILES,pest or weed control at 100 ppm [%]
1,COc1nccnc1-n1nc(C(F)(F)F)c(-c2cc(C(F)(F)F)cc(C(F)(F)F)c2)c1N [Ex. 14],90
2,COc1nccnc1-n1nc(C(F)(F)F)c(-c2cc(Cl)c3c(c2)OCO3)c1N [Ex. 48],100
3,COc1nccnc1-n1nc(C)c(-c2cc(Cl)c3c(c2)OCO3)c1N [Ex. 75],100
4,CCc1nn(-c2nccnc2OC)c(N)c1-c1cc(Cl)c2c(c1)OCO2 [Ex. 76],100
